Experiment [1] deals with HL-60. Put plainly: Induction of cell differentiation of human HL60 cells at 10 uM in presence of 0.1 uM ATRA after 72 hrs by NBT dye based assay. It is filed as functional.
Experiment [2] concerns HL-60. Put plainly: Induction of cell differentiation of human HL60 cells at 10 uM after 72 hrs by NBT dye based assay. It is filed as functional.
Experiment [3] is described as follows: Growth inhibition of human HL60 cells at 10 uM in presence of 0.1 uM ATRA after 48 hrs by MTT assay. It is filed as functional, HL-60. In general terms: Tetrazolium dyes change colour on reduction, which living cells bring about.
Experiment [4] in a line: Growth inhibition of human HL60 cells at 10 uM after 48 hrs by MTT assay. The format is functional. The note with it: HL-60, 48 h, read-out: GI.
A further experiment has as its target T1, Cytochrome P450 26A1 (Homo sapiens, UniProt O43174).
T1 sequence (O43174 whole entry): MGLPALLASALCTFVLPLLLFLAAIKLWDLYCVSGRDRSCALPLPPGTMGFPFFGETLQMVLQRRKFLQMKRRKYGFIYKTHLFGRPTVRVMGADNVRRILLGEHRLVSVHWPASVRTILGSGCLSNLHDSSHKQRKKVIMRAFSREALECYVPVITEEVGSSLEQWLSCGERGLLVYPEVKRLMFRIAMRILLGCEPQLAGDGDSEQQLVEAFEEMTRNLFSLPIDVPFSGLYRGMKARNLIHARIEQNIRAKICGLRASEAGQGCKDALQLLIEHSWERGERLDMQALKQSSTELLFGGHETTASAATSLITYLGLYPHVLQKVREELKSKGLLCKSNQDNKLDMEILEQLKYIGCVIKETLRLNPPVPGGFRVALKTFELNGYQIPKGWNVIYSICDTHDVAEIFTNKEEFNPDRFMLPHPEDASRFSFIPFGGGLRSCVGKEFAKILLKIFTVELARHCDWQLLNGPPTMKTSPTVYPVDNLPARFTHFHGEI
Put plainly: Inhibition of CYP26A1 in ATRA-induced human HL60 cell microsomes incubated for 30 mins using ATRA and NADPH by HPLC method. It is filed as cell-based, HL-60.

Experiment [5] deals with HL-60. As to the kind of experiment: Induction of cell differentiation of human HL60 cells at 0.1 uM after 72 hrs by NBT dye based assay. The format is functional.
Experiment [6] is described as follows: Growth inhibition of human HL60 cells at 0.1 uM after 48 hrs by MTT assay. It is filed as functional. The note with it: HL-60, 48 h, read-out: GI.
In experiment [7] the test system is HL-60. As to the kind of experiment: Induction of CYP26A1 expression in human HL60 cells at 0.1 uM after 72 hrs. It is filed as functional, cell-based.

The record followed here is ChEMBL document CHEMBL3397030, “Synthesis and biological evaluation of 3-phenyl-3-aryl carboxamido propanoic acid derivatives as small molecule inhibitors of retinoic acid 4-hydroxylase (CYP26A1)” (Bioorg Med Chem, 2015).

Active and inactive are the calls of the source. No cut-off for these calls is given here.

In general, IC50 refers to the concentration needed to halve the response being measured. High values mean lower potency, low ones higher potency. As to `Cc1ccc(C(CC(=O)O)NC(=O)c2cc(C)oc2C)cc1` (configuration not stated), the Activity in the experiment with HL-60 [1] was 42.62%; in the experiment on HL-60 [2] it was 0%. Moreover, the “growth inhibition (GI)” value in experiment [3] was found to be 44.85%. Moreover, the inhibition of growth at 10 µM in experiment [4] amounted to 5.85%. The same compound gave an IC50 on Cytochrome P450 26A1 of 3090 nM.

Consider `Clc1cccc(C(c2ccc3[nH]cnc3c2)n2ccnc2)c1` (configuration not stated) [LIAROZOLE], for which the Activity with HL-60 [1] is recorded as 46.71%; in the experiment on HL-60 [2], 0%. The “growth inhibition (GI)” value in experiment [3] worked out at 48.26%. Further, the inhibition of growth at 10 µM in experiment [4] amounted to 15.4%.

Consider `Cc1nn(-c2ccccc2)c(Cl)c1C(=O)NC(CC(=O)O)c1cccc(Br)c1` (configuration not stated), for which the results for the Activity in the experiment on HL-60 [1] and in the experiment with HL-60 [2] were 48.51% and 0%, respectively. In addition, the “growth inhibition (GI)” value in experiment [3] was determined as 56.15%. Besides, in experiment [4], the inhibition of growth at 10 µM came to 6.16%. On Cytochrome P450 26A1, this compound showed a concentration for half-maximal inhibition (IC50) of 1870 nM.

`CC1=C(/C=C/C(C)=C/C=C/C(C)=C/C(=O)O)C(C)(C)CCC1` [TRETINOIN] had an Activity in the experiment with HL-60 [5] of 26.07%. The inhibition of growth at 0.1 µM in experiment [6] worked out at 23.8%. For the same compound, the result in the experiment with HL-60 [7] was Active.

In the case of `Cc1cc(C(=O)NC(CC(=O)O)c2ccc(Cl)cc2)c(C)o1` (configuration not stated), the Activity in the experiment with HL-60 [1] turned out to be 46.61%; in the experiment on HL-60 [2], 0%. The “growth inhibition (GI)” value in experiment [3] is reported as 49.53%. The inhibition of growth at 10 µM in experiment [4] was 10.3%. At Cytochrome P450 26A1, this compound gave an IC50 of 2730 nM.
